Reference: US5622955A, “Methods of treating cryptosporidium parvum” (The University of North Carolina at Chapel Hill, priority 1995, dated 1997)
Where a name gives a salt, the structure may show the parent alone. Read-outs that look alike come from different tables or passages of the source.

What was measured:
[1] = tested on: poly dA.dT; experiment: DNA binding: increase in thermal melting of poly dA.dT
Text: ^a Increase in thermal melting of poly dA.dT. See, W. Wilson, et al.,

[2] = tested on: G. lamblia; experiment: 50% inhibitory concentration against G. lamblia; assay type: cell-based
Text: ^d 50% Inhibitory concentration against G. lamblia, P. carinii
topoisomerase. See, Bell, et al., supra.

[3] = tested on: C. Parvum; experiment: Inihibition of C. Parvum; assay type: in vivo
[4] = tested on: Pneumocystis carinii; settings: rat, in vivo
[5] = tested on: Pneumocystis carinii; experiment: In vivo Activity Against Pneumocystis carinii in Rats; settings: saline = 100%
[6] = target: T1, topoisomerase II isolated from P. carinii (Pneumocystis carinii, UniProt A0A0W4ZKQ4); experiment: Inhibition of topoisomerase II isolated from P. carinii; assay type: biochemical
T1 construct: homodimer
T1 sequence (A0A0W4ZKQ4 1-1493): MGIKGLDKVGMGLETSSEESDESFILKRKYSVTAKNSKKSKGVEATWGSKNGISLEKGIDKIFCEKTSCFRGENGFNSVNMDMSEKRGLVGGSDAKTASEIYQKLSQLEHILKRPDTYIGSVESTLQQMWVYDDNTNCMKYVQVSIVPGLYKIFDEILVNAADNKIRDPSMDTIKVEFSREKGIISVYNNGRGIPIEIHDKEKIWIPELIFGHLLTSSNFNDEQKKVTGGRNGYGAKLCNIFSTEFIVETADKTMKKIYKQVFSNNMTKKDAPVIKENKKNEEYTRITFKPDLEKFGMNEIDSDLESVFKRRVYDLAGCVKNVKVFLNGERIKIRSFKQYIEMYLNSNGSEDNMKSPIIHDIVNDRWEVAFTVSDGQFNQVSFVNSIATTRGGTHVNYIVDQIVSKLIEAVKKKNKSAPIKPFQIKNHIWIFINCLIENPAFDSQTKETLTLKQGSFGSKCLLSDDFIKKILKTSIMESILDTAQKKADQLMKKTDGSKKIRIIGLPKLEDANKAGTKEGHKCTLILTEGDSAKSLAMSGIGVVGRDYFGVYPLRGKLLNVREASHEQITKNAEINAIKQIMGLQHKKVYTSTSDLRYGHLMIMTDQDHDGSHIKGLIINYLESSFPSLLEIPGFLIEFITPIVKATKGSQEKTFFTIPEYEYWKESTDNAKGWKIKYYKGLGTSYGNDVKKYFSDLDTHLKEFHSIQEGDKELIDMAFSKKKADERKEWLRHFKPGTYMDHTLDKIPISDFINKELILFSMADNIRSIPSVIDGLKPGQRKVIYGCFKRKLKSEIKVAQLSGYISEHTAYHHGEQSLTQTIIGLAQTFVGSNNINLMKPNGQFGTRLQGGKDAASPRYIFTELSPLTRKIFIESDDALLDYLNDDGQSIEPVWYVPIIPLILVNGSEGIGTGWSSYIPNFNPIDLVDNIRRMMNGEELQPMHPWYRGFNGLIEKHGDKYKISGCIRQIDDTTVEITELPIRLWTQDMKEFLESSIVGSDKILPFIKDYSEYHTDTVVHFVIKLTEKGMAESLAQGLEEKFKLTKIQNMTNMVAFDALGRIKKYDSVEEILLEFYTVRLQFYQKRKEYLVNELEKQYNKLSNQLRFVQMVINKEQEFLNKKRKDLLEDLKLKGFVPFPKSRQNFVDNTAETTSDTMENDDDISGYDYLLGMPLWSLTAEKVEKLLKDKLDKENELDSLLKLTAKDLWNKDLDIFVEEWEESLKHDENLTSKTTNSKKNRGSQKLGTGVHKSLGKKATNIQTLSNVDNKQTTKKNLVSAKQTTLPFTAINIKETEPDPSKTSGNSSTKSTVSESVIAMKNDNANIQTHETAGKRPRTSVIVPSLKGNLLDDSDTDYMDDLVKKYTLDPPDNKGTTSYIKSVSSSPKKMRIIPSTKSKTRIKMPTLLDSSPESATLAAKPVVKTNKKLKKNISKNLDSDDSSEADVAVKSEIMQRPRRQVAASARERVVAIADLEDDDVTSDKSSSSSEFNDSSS
Text: ^c Inhibition of topoisomerase II isolated from P. carinii. See, C.
Dykstra, et al., J. Protozool. 38:78S (1991).

[7] = Giardia duodenalis; read-out: G. lamblia IC50

Structure (SMILES)	DNA binding (Increase in thermal melting of poly dA.dT) [1]	IC50 [2, 7]	Toxicity ([4]; 5 mg/kg/day)	cyst/g Lung ([5]; 5.0 mg/Kg per day)	cyst/g Lung ([5]; 2.5 mg/Kg per day)	other results
Cl.N=C(N)c1ccc(-c2ccnc(-c3ccc(C(=N)N)cc3)n2)cc1 [Compound 1, 2,4-Bis-(4-guanylphenyl)pyrimidine hydrochloride]	21.5	2000 nM	0	2.4%		% efficacy ([3]; 0.1 mg/kg/day): 30%; % efficacy ([3]; 5 mg/kg/day): 68%; % efficacy ([3]; 25 mg/kg/day): 50%; Toxicity ([4]; 10 mg/kg/day): 1+; cyst/g Lung ([5]; 10.0 mg/Kg per day): 0.8%
c1cc(-c2ccc(C3=NCCN3)cc2)nc(-c2ccc(C3=NCCN3)cc2)n1 [Compound 2, 2,4Bis[(4imidazolin-2-yl)phenyl]pyrimidine hydrochloride]		3000 nM	0	2.4%		
c1cc(-c2ccc(C3=NCCCN3)cc2)nc(-c2ccc(C3=NCCCN3)cc2)n1 [Compound 3, 2,4Bis[(4tetrahydropyrimmidinyl-2-yl)phenyl]pyrimidine hydrochloride]	25	790 nM			85.2%	
c1ccc(-c2nccc(-c3ccc(C4=NCCN4)cc3)n2)cc1 [Compound 4, 2phenyl-4-[4(imidazolin-2-yl)phenyl]pyrimidine hydrochloride]		2000 nM		21.1%		
COc1cc(C(=N)NC(C)C)ccc1-c1ccnc(-c2ccc(C(=N)NC(C)C)cc2)n1 [Compound 5, 2-(4-[N-i-propylguanyl]phenyl)-4-(2-methoxy-4-[N-i-propylguanyl]phenyl)pyrimidine]	13.9	36700 nM			1.0%	Topoisomerase P. Carinii (Inhibition of topoisomerase II isolated from P. carinii) [6]: no
N=C(N)c1ccc(OCCCCCOc2ccc(C(=N)N)cc2)cc1 [Pentamidine, reference compound]	12.8					IC50 ([2]; Giardia duodenalis, read-out: G. lamblia IC50): 2600 nM
